Assay results published in publication PMC7158045 (BMC Plant Biology, 2020).

Experiments:
Assay in all cases: biochemical
ZmDRIK1-R187-P492 = biological target: T1, ZmDRIK1-R187-P492 (Zea mays, UniProt C0P4K9); settings: read-out: dTm B, DSF, Boltzmann fit, 0.1% DMSO
T1 construct: kinase domain, R187-P492
T1 sequence (C0P4K9 1-514): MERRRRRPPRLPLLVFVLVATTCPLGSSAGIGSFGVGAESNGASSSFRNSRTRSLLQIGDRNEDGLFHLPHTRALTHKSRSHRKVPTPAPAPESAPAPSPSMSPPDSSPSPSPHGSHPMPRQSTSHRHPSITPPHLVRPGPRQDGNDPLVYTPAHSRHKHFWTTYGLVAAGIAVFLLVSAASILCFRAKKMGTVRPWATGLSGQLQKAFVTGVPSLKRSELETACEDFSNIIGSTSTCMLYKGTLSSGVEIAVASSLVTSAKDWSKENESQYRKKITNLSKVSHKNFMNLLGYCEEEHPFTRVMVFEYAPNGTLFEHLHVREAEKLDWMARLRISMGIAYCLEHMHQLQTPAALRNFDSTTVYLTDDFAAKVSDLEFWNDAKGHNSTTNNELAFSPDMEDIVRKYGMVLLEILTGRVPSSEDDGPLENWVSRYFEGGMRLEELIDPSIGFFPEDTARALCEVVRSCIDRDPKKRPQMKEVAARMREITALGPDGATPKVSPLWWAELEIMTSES

[1] = biological target: T2, ZmDRIK1 (DROUGHT RESPONSIVE INACTIVE KINASE 1), kinase domain (Zea mays, UniProt C0P4K9); settings: read-out: dTm B, sheet ZmDRIK1-R187-S514;; DSF, Boltzmann fit, 0.1% DMSO
T2 construct: gene ZEAMMB73_Zm00001d028770; ZmDRIK1-KD R187-S514 (kinase domain)
T2 sequence (C0P4K9 187-514): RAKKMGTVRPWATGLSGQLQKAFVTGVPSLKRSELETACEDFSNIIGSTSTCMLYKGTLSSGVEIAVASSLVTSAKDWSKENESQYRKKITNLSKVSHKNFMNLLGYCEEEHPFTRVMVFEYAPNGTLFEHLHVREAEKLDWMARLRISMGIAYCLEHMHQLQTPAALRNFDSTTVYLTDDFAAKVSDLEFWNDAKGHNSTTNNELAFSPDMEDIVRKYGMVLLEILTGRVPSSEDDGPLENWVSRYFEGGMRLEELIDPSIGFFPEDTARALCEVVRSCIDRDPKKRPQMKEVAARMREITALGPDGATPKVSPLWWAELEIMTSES

ZmDRIK1-K217-S514 = biological target: T3, ZmDRIK1-K217-S514 (Zea mays, UniProt C0P4K9); settings: read-out: dTm B, sheet ZmDRIK1-K217-S514;; DSF, Boltzmann fit, 0.1% DMSO
T3 construct: kinase domain, K217-S514
T3 sequence (C0P4K9 1-514): T1 sequence (C0P4K9 1-514)

ZmDRIK1-K217-P492 = biological target: T4, ZmDRIK1-K217-P492 (Zea mays, UniProt C0P4K9); settings: read-out: dTm B, sheet ZmDRIK1-K217-P492;; DSF, Boltzmann fit, 0.1% DMSO
T4 construct: kinase domain, K217-P492
T4 sequence (C0P4K9 1-514): T1 sequence (C0P4K9 1-514)

Row | Compound | ΔTm at 10 µM (ZmDRIK1-R187-P492) [°C] | ΔTm at 10 µM [1] [°C] | ΔTm at 10 µM (ZmDRIK1-K217-S514) [°C] | ΔTm at 10 µM (ZmDRIK1-K217-P492) [°C]
1 | CC(C)NC[C@@H](C(=O)N1CCN(c2ncnc3c2[C@H](C)C[C@H]3O)CC1)c1ccc(Cl)cc1 [GDC-0068] | -0.352 | -0.503 | -0.251 | -1.1
2 | O=C1NCCc2[nH]c(-c3ccncc3)cc21 [PHA-767491] | -0.213 | -0.701 | -0.125 | -0.984
3 | CC[C@@H]1C(=O)N(C)c2cnc(Nc3ccc(C(=O)N[C@H]4CC[C@H](N5CCN(CC6CC6)CC5)CC4)cc3OC)nc2N1C(C)C [Volasertib (BI 6727)] | -0.282 | -0.792 | -0.29 | -1.3
4 | CCc1nc(-c2cccc(C)c2)c(-c2ccnc(NC(=O)c3ccccc3)c2)s1 [TAK-715] | -0.496 | -0.0163 | -0.442 | -1.08
5 | O=C1Nc2ccc(I)cc2/C1=C/c1cc(Br)c(O)c(Br)c1 [GW5074] | -0.306 | -0.178 | 0.341 | -0.0461
6 | Oc1ccc2ccccc2c1SSc1c(O)ccc2ccccc12 [IPA-3] | -15.4 | -20.6 | -15 | -15.1
7 | CN1CCC(CNc2ccc3ncc(-c4cccc(OC(F)(F)F)c4)n3n2)CC1 [SGI-1776 free base] | -0.27 | -1.1 | -0.336 | -0.576
8 | Cc1c(NC(=O)c2ccc(C(C)(C)C)cc2)cccc1-c1cn(C)c(=O)c(Nc2ccc(C(=O)N3CCOCC3)cc2)n1 [CGI1746] | -0.389 | -1.61 | -0.561 | -1.51
9 | CCN(CC)CCCCNc1ncc2cc(-c3cc(OC)cc(OC)c3)c(NC(=O)NC(C)(C)C)nc2n1 [PD173074] | -0.212 | -0.711 | -0.228 | -0.962
10 | CCN(CC)CCCC(C)Nc1nc(C)cc(Nc2ccc3nc(C)cc(N)c3c2)n1 (stereo not drawn) [NSC 23766] | -0.128 | -0.461 | -0.555 | -0.485
11 | CCCS(=O)(=O)Nc1ccc(F)c(C(=O)c2c[nH]c3ncc(-c4ccc(Cl)cc4)cc23)c1F [Vemurafenib (PLX4032)] | -7.37 | -21.5 | -0.89 | -0.0662
12 | Cc1c(NC(=O)OC[C@@H]2COCCN2)cn2ncnc(Nc3ccc4c(cnn4Cc4cccc(F)c4)c3)c12 [AC480 (BMS-599626)] | -0.278 | -0.997 | -0.265 | -0.766
13 | Cc1ncc(-c2ccnc(Nc3ccc(S(C)(=O)=O)cc3)n2)n1C(C)C [AZD5438] | -0.417 | -0.576 | -0.394 | -1.24
14 | CC(C)(C)n1nc(-c2ccc(Cl)cc2)c2c(N)ncnc21 [PP2] | -0.394 | -0.713 | -0.458 | -1.25
15 | Cc1nc(N)sc1-c1ccnc(Nc2ccc(N3CCOCC3)cc2)n1 [CYC116] | 0.313 | -1.14 | -0.183 | -0.775
16 | Cc1cc2c(F)c(Oc3ncnn4cc(OC[C@@H](C)OC(=O)[C@H](C)N)c(C)c34)ccc2[nH]1 [Brivanib Alaninate (BMS-582664)] | -0.504 | -1.08 | -0.426 | -1
17 | CCOc1cc(N2CCC(O)CC2)ccc1Nc1ncc2c(n1)N(C)c1ccccc1C(=O)N2C [XMD8-92] | -0.38 | -0.666 | -0.663 | -1.16

Row | Compound | ΔTm at 10 µM (ZmDRIK1-R187-P492) [°C] | ΔTm at 10 µM [1] [°C] | ΔTm at 10 µM (ZmDRIK1-K217-S514) [°C] | ΔTm at 10 µM (ZmDRIK1-K217-P492) [°C]
18 | Cc1cc(Nc2nc(N[C@@H](C)c3ccc(F)cc3)c(C#N)cc2F)n[nH]1 [AZ 960] | -0.311 | -0.939 | -0.27 | -0.533
19 | Cc1cc(Nc2nc(N[C@@H](C)c3ncc(F)cn3)ncc2Cl)[nH]n1 [AZD1480] | -0.161 | -0.906 | -0.215 | -0.856
20 | O=C1Nc2ccccc2/C1=C1/Nc2ccccc2C1=O [Indirubin] | -0.337 | -0.784 | -0.386 | -1.26
21 | CCn1c2ccccc2c2cc(Nc3ccnc(NCCCN4CCOCC4)n3)ccc21 [EHop-016] | -0.204 | -0.693 | -0.29 | -1.16
22 | Cc1[nH]c(/C=C2\C(=O)Nc3ccc(S(=O)(=O)Cc4c(Cl)cccc4Cl)cc32)c(C)c1C(=O)N1CCC[C@@H]1CN1CCCC1 [PHA-665752] | -0.648 | -0.988 | -0.843 | -1.25
23 | Cc1[nH]c(/C=C2\C(=O)Nc3ccc(S(=O)(=O)N(C)c4cccc(Cl)c4)cc32)c(C)c1C(=O)N1CCN(C)CC1 [SU11274] | -0.288 | -1.31 | -0.605 | -0.463
24 | C=CC(=O)Nc1cccc(Nc2nc(Nc3ccc(Oc4ccnc(C(=O)NC)c4)cc3)ncc2F)c1 [CNX-774] | -1.55 | -10.9 | -0.729 | -0.472
25 | FC(F)(F)c1ccc(/C=C/c2nc(COc3ccc(CCCCn4ccnn4)cc3)co2)cc1 [Mubritinib (TAK 165)] | -0.156 | -0.964 | -0.334 | -0.803
26 | Cc1ccc(C(=O)Nc2cccc(C(F)(F)F)c2)cc1Nc1nc(-c2cccnc2)nc2c1cnn2C [NVP-BHG712] | -0.0503 | -2.05 | 0.0902 | -0.914
27 | CNC(=O)c1cc(Oc2ccc(NC(=O)Nc3ccc(Cl)c(C(F)(F)F)c3)c(F)c2)ccn1 [Regorafenib (BAY 73-4506)] | -5.88 | -15.3 | -0.13 | -8.99
28 | Cn1cnc2c(F)c(Nc3ccc(Br)cc3F)c(C(=O)NOCCO)cc21 [MEK162 (ARRY-162)] | -0.189 | -0.978 | -0.461 | -1.3
29 | NC1(c2ccc(-c3nc4ccn5c(=O)[nH]nc5c4cc3-c3ccccc3)cc2)CCC1 [MK-2206 2HCl] | -0.104 | -1.02 | -0.181 | -0.178
30 | COc1cc(Nc2ncc(F)c(Nc3ccc4c(n3)N(COP(=O)(O)O)C(=O)C(C)(C)O4)n2)cc(OC)c1OC [Fostamatinib (R788)] | -0.222 | -0.579 | -0.314 | -0.792
31 | O=c1cc(CN2CCOCC2)occ1OCCCCCSc1ccnc2cc(C(F)(F)F)ccc12 [EHT 1864] | -0.298 | -0.648 | -0.387 | -0.4
32 | O=C(Nc1ccc(-c2ccnc(Nc3ccc(N4CCOCC4)cc3)n2)cc1)C1CCCN1 (stereo not drawn) [XL019] | -0.478 | -0.481 | -0.368 | -0.95
33 | C=CC(=O)Nc1cccc(Oc2nc(Nc3ccc(N4CCN(C)CC4)cc3OC)ncc2Cl)c1 [WZ4002] | -0.434 | -1.27 | -0.557 | -1.2
